Source: PMC9413514, “Accessing Lipophilicity and Biomimetic Chromatography Profile of Biologically Active Ingredients of Botanicals Used in the Treatment of Inflammatory Bowel Disease” (Pharmaceuticals, 2022)

Key:
[1] = C18-TLC assay (hydrophobicity); assay type: physicochemical; details: for RM0 (TLC hydrophobicity index, intercept of linear equation): RP-18 TLC, PBS pH 7.4/methanol, extrapolated to zero organic modifier; for spot migration in C18-TLC: regardless the percentage of the organic modifier in the mobile phase
Text: In TLC measurements RF value depends on the chemical structure of analyte and its interaction with stationary and mobile phase. […] As it was expected, with increase in the percentage of organic modifier in the mobile phase the increase in RF values can be seen with accompanied decrease in RM values expressed as RM = log(1/RF - 1). Measured RF values were in the range from 0.1 to 0.7 obtained in a wide range of mobile phase organic modifier concentrations. […] Increasing concentration of the organic modifier in the mobile phase caused a slower decrease in the RM values for less hydrophobic analytes than for more hydrophobic ones. […] Increase in the hydrophobicity within curcuminoids and andrographolides is related to increase in lipophilicity determined by shake-flask method (Table 3). Stock solutions of analytes and calibration standards were prepared by dissolving 10 mg of each solute in 10 mL of methanol and kept at 4 °C. Working solutions were freshly prepared at the beginning of each day by dilution of the stock solutions to 100 μg/mL with methanol for TLC measurements or mobile phase for HPLC measurements. Before use, the samples were sonicated (Elmasonic […]) for 10 min at 25 °C and all working solutions were filtered through 0.2 μm polyethersulfone filters (Obrnuta faza). To protect analytes from photodegradation, the amber glass HPLC vials were used. Analyses were carried out using a commercially available 10 cm x 20 cm RP-18 TLC plates with fluorescent indicator (Merck KGaA). 5 μL of each working solution ([…]) was applied to the plates as 5 mm bends, 10 mm from the lower edge and 15 mm from sides of plates. The mobile phases were prepared by mixing the respective amounts of PBS (20 mM, pH 7.4) and methanol from 50% to 80% of organic solvent in 5% increment. The vertical flat-bottom chamber ([…], Switzerland) with a stainless-steel lid was saturated with mobile phase for 30 min. The plates were developed to a distance of 9 cm at room temperature, dried in the open air for 5 min and visualized under λ = 254 nm UV light (UV Cabinet with Dual Wavelength UV lamp by Camag).

[2] = IAM-HPLC assay (lipophilicity, affinity to phospholipids); assay type: physicochemical
Procedure: IAM columns provide potential to simulate membrane permeability since the amphiphilic character of phospholipid functional groups plays an important role in IAM retention especially when charged molecules are analysed.
(§1) Stock solutions of analytes and calibration standards were prepared by dissolving 10 mg of each solute in 10 mL of methanol and kept at 4 °C. Working solutions were freshly prepared at the beginning of each day by dilution of the stock solutions to 100 μg/mL with methanol for TLC measurements or mobile phase for HPLC measurements. Before use, the samples were sonicated (Elmasonic XtraTT, Elma Schmidbauer) for 10 min at 25 °C and all working solutions were filtered through 0.2 µm polyethersulfone filters (Obrnuta faza). To protect analytes from photodegradation, the amber glass HPLC vials were used.
C18-HPLC assay was carried out at Agilent HPLC 1100 and Zorbax SB C18 chromatographic column (length 250 mm.6 mm, particle size 5 µm) by Agilent Technologies, while IAM-HPLC assay was conducted using IAM P.C.DD2 chromatographic column (length 50 mm, i.d. 3.0 mm, particle size […]) by Regis Technologies (Morton Grove, IL, USA). Retention data were collected at 25.0 ± 0.1 °C using isocratic method working with mobile phases, mixing the respective amounts of PBS (10 mM, pH 7.4) and methanol from 35% to 80% of organic solvent in 5% increment. Each mobile phase was shaken vigorously and filtrated through membrane filter, no. 66, diameter 47 mm, pore size 0.45 µm by Supelco and degassed by sonication 5 min before use. The injection volume was set at 10 µL, and the measurements were carried out at flow rate 1.0 mL/min. Natrium nitrate solution (0.1 mg/mL in mobile phase) was used as the marker of dead-time. The absorbance of the analytes during a chromatographic run was collected in the spectral range of 200–400 nm, and the detection wavelength for each analyte was the one providing the maximum peak height.

[3] = biological target: T1, human serum albumin (HSA) (Homo sapiens, UniProt P02768); assay: HSA-HPAC assay (plasma protein binding); assay type: in vitro ADME; details: Chiralpak-HSA, pH 7.4, 25 °C; spread is RSD in %
T1 construct: purchased ChromTech (Cedex, France) Chiralpak-HSA
Text: (§2) The gradient retention times obtained by HSA-HPAC and AGP-HPAC assays were standardized using a calibration set of compounds with known percentage of plasma protein binding data and procedure described in our previously published study. […] This verification assured that the protein affinity indices obtained by HPAC assays depict not only unspecific generally lipophilicity-driven interactions, but also highly specific recognition forces responsible of enantioselectivity.
as §1
(§3) The binding of biologically active compounds to the plasma proteins was investigated using affinity chromatographic columns by ChromTech (Cedex, France) containing immobilized human serum albumin (HSA) (Chiralpak-HSA, length 50 mm, i.d. 4.6 mm, particle size 5 µm) and α1-acid glycoprotein (AGP) (Chiralpak-AGP, length 50 mm, i.d. 4.6 mm, particle size 5 µm) and Agilent HPLC 1100 instrument. The 20 mM potassium phosphate buffer with the pH adjusted to 7.4 and iso-propanol were used as mobile phase components A and B. Retention data were collected at 25.0 ± 0.1 °C using gradient program as follows: 0 min/0% B, 6 min/30% B, 15 min/30% B and 20 min/0% B. Injection volume was set at 10 µL and the measurements were carried out at 25.0 ± 0.1 °C with flow rate of 1.5 mL/min. The absorbance of the analytes during a chromatographic run was collected in the spectral range 200–400 nm, and the detection wavelength for each analyte was the one providing the maximum peak height.

[4] = tested on: α1-acid glycoprotein (AGP); assay: AGP-HPAC assay (plasma protein binding); assay type: in vitro ADME; details: Chiralpak-AGP, pH 7.4, 25 °C; spread is RSD in %
Text: as §2, §1, §3

[5] = Miniaturized shake-flask method (n-octanol/PBS pH 7.4) with HPLC analysis; assay type: physicochemical; details: n-octanol/PBS 20 mM pH 7.4, 25 °C; spread is RSD in %; read-out: log D7.4 ± RSD (%) (n = 3)
Procedure: Stock solution of biologically active ingredients of botanicals used in IBD treatment were prepared using dimethylsulfoxide in concentration of 2 mg/mL. Working solutions were prepared daily by dilution of the stock solutions with PBS (20 mM, pH 7.4) pre-saturated with n-octanol. Before the injection into the HPLC system all solutions were sonicated for 15 min at room temperature in Elmasonic XtraTT (Elma Schmidbauer, Singen, Germany) and filtered through 0.2 μm polyethersulfone filters (Obrnuta faza, Pazin, Croatia).
The pre-saturated solutions of n-octanol and PBS (20 mM, pH 7.4) were used for determination of logarithm of distribution coefficient (log D7.4). The n-octanol and aqueous phase (mixture 1:1, v/v) were mutually saturated for 24 h in an orbital shaker-incubator ES-20/60 (Biosan, Riga, Latvia) at 100 oscillations per min at 25.0 ± 0.1 °C. The prepared mixture was left resting for at least 12 h in the thermostat at 25.0 ± 0.1 °C to ensure complete separation of the two phases. Until analysis, separated saturated solutions were kept in refrigerator at 4 °C.
Shake-flask procedure was conducted in amber 2 mL HPLC vials. 300 μL of the working solution was added to 1500 μL of n-octanol pre-saturated with PBS. To prevent material loss due to volatilisation, the two-phase system nearly filled the entire volume of the test vessels. All n-octanol–buffer mixtures were first vortexed for 1 min and then shaken for 1 h (150 oscillations per min) at room temperature (25.0 ± 0.1 °C) to reach equilibrium and phase distribution. Afterward, the samples were centrifuged using a Z 326 K tabletop centrifuge (HERMLE Labortechnik, Wehingen, Germany) for 30 min at 4000× g and 25 °C to ensure that possible emulsions were removed.
After equilibration and phase separation, the aqueous phase of all samples was analysed on an Agilent HPLC 1100 (Agilent Technologies, Waldbronn, Germany) with diode array detection. Analysis was conducted with a Zorbax SB C18 column (length 150 mm, i.d. 4.6 mm, particle size 5 μm) by Agilent Technologies. 10 min chromatographic runs were performed at 25.0 ± 0.1 °C in isocratic mode using a methanol/water mixture (60/40, v/v) with addition of 0.1% of formic acid as mobile phase modifier at a flow rate of 1.0 mL/min. The mobile phase was filtered through a membrane filter, no. 66, diameter 47 mm, pore size 0.45 µm (Supelco, Bellefonte, PA, USA). The vials were placed in the rack on the autosampler at 25 °C. The injection volume was 10 µL, with a needle offset of 0.5 mm. To avoid any carryover of the analyte-containing n-octanol phase, the outside of the syringe was subsequently washed in methanol before injection. The absorbance of the analytes during a chromatographic run was collected in the spectral range 200–400 nm, and the detection wavelength for each analyte was the one providing the maximum peak height.

[6] = IAM P.C.DD2 column, PBS pH 7.4/methanol, extrapolated to zero organic modifier

T1 sequence (P02768 25-609): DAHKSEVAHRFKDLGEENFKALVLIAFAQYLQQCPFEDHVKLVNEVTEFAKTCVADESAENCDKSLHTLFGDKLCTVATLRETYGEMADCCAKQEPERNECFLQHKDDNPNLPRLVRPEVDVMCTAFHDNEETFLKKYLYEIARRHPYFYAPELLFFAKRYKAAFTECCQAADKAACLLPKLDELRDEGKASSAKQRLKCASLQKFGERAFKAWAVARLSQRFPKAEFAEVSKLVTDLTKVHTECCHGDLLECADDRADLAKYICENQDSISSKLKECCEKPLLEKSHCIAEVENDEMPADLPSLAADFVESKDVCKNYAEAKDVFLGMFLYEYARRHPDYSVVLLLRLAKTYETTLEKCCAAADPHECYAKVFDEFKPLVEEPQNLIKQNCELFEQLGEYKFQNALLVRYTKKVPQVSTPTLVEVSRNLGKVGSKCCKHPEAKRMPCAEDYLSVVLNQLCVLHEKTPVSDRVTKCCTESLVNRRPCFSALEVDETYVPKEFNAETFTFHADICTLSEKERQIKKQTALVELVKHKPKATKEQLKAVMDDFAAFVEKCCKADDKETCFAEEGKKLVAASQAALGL

CC(=O)O[C@@H]1CC[C@@]2(C)[C@@H](CC[C@]3(C)[C@@H]2C(=O)C=C2[C@@H]4[C@@H](C)[C@H](C)CC[C@]4(C)CC[C@]23C)[C@@]1(C)C(=O)O [3-Acetyl-11-keto-β-boswellic Acid, 3-acetyl-11-keto-β-boswellic acid]
RM0 (TLC hydrophobicity index, intercept of linear equation) [1]: y = −0.0722 x + 6.9059 | Δ RM0 (increase compared to 11-keto-β-boswellic acid) ([1]; compared to 11-keto-β-boswellic acid): 1.53 units | logk0 IAM (HPLC lipophilicity index, intercept of linear equation) ([2]; pH 7.4): y = −0.0703 x + 5.1157 | HSA Binding ± RSD (%) (n = 3) [3]: 99.83 ± 0.47% | AGP Binding ± RSD (%) (n = 3) [4]: 83.10 ± 0.37%

CC1CCC2(C)CCC3(C)C(=CC(=O)C4C5(C)CCC(O)C(C)(C(=O)O)C5CCC43C)C2C1C (stereo not drawn) [11-Keto-β-boswellic Acid, 11-keto-β-boswellic acid]
RM0 (TLC hydrophobicity index, intercept of linear equation) [1]: y = −0.0564 x + 5.3756 | logk0 IAM (HPLC lipophilicity index, intercept of linear equation) [2, 6]: y = −0.0570 x + 4.9194 | HSA Binding ± RSD (%) (n = 3) [3]: 98.09 ± 0.02% | AGP Binding ± RSD (%) (n = 3) [4]: 79.01 ± 0.20%

COc1cc(/C=C/C(=O)CC(=O)/C=C/c2ccc(O)c(OC)c2)ccc1O [Curcumin, curcumin]
logD at 1 h [5]: 1.94 | HSA Binding ± RSD (%) (n = 3) [3]: 97.52 ± 0.20% | AGP Binding ± RSD (%) (n = 3) [4]: 83.07 ± 1.10%

CC1(C)CCC2(C)CCC3(C)C(=CCC4C5(C)CCC(O)C(C)(C(=O)O)C5CCC43C)C2C1 (stereo not drawn) [α-Boswellic Acid, α-boswellic acid]
spot migration in C18-TLC [1]: no spot migration was observed | logk0 IAM (HPLC lipophilicity index, intercept of linear equation) [2, 6]: y = −0.0788 x + 6.3109 | HSA Binding ± RSD (%) (n = 3) [3]: 98.94 ± 0.35% | AGP Binding ± RSD (%) (n = 3) [4]: 89.22 ± 0.30%

C[C@H]1[C@H](C)CC[C@]2(C)CC[C@]3(C)C(=CC[C@@H]4[C@@]5(C)CC[C@@H](O)[C@](C)(C(=O)O)[C@@H]5CC[C@]43C)[C@H]12 [β-Boswellic Acid, β-boswellic acid]
spot migration in C18-TLC [1]: no spot migration was observed | logk0 IAM (HPLC lipophilicity index, intercept of linear equation) ([2]; pH 7.4): y = −0.0816 x + 6.5157 | HSA Binding ± RSD (%) (n = 3) [3]: 99.79 ± 0.30% | AGP Binding ± RSD (%) (n = 3) [4]: 89.15 ± 2.04%
